Values quoted from earlier work as cited in patent US20060243184A1, “Use of waste nitrogen from air separation units for blanketing cargo and ballast tanks” (Chevron U.S.A. Inc., priority 2003, published 2006).

conditions: @ 20° C.

Compound | Water Solubility
CCCS [Propylmercaptan] | Low
CS [Methylmercaptan] | 2.4%
CCS [Ethylmercaptan] | 1.3%
